Here are results for 21 compounds from US20250197357A1, “PPARG INVERSE AGONISTS AND USES THEREOF” (Flare Therapeutics Inc., priority 2022, published 2025).

The target in assay [1] is T1, PPARG/RXRA LBD heterodimer (Homo sapiens, UniProt P37231).
T1 construct: 2 nM WT PPARG LBD (e. coli expressed, His-TEV-Q203-Y477); fused on or other part: N-terminal His tag with TEV site on the PPARG LBD
In words: PPARγ-NCOR1 recruitment assay (TR-FRET). The assay is classed as binding. The note with it: NCOR1 ID2 peptide, 80 nM Rosiglitazone, 3 hours, read-out: PPARG - NCOR recruitment assay EC50. As for the experimental part: Compound potency (EC50) and maximal extent of NCOR1 recruitment to PPARG were assessed a TR-FRET binding assay measuring association of a biotinylated NCOR1 ID2 peptide (Biotin-[…]-amide) to PPARG/RXRA LBD heterodimer. Specifically, a 20 microliters of TR-FRET master mix consisting of 2 nM WT PPARG LBD (e. coli expressed, His-TEV-Q203-Y477; Uniprot ID P37231-2), 2 nM WT RXRA LBD or mutant S427F RXRA LBD (e. coli expressed, Flag-TEV-E228-T462; […]. Mixtures were incubated for 3 hours and read in an EnVision plate reader (Perkin Elmer) with Ex/Em 615/665. To determine the potency (EC50) and extent of NCOR1 recruitment, TR-FRET ratios were normalized to the average ratio of DMSO control wells (0%) and to the average maximum ratio for positive control compound (T0070907 (2-chloro-5-nitro-N-4-pyridinyl-benzamide); defined as 100%) in CDD Vault and analyzed using the Levenberg-Marquardt algorithm.
Background: Time-resolved FRET reads energy transfer from a long-lived donor to a nearby acceptor.
T1 sequence (O75376 2251-2273 limits assumed, one chain of several, further chain): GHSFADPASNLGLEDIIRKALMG

Assay [2] addresses T2, PPARG/RXRA LBD heterodimer (Homo sapiens, UniProt P37231).
T2 construct: His-TEV-Q203-Y477; Uniprot ID P37231-2; made in house; host or cells: E. coli
T2 sequence (P37231 203-477 isoform P37231-2): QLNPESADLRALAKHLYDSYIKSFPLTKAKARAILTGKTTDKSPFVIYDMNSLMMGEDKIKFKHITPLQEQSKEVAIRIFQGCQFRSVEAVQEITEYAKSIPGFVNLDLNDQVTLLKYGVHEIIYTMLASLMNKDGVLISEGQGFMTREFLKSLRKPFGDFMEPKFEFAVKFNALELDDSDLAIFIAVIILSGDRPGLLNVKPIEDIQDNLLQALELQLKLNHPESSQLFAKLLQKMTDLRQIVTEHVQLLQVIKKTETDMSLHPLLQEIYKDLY
T2 sequence (P19793 228-462 partner limits assumed): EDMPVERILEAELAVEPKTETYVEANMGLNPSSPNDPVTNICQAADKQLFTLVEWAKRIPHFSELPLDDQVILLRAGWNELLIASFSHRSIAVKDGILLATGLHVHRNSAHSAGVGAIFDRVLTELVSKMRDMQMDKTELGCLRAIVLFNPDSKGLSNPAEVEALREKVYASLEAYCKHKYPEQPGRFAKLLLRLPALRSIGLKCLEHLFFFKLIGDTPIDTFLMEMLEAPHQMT
Nature of the assay: PPARγ-MED1 blockade assay (TR-FRET). The following applies: MED1 LxxLL peptide, 80 nM Rosiglitazone, 3 hours. The format is binding. As for the experimental part: Compound potency (IC50) and maximal extent of MED1 repulsion to PPARG were assessed a TR-FRET binding assay measuring association of a biotinylated MED1 LxxLL peptide (Biotin—[…]-amide) to PPARG/RXRA LBD heterodimer. Specifically, a 20 microliters of TR-FRET master mix consisting of 2 nM WT PPARG LBD (e. coli expressed, His-TEV-Q203-Y477; Uniprot ID P37231-2), 2 nM WT RXRA LBD (e. coli expressed, Flag-TEV-E228-T462; […]. Mixtures were incubated for 3 hours and read in an EnVision plate reader (Perkin Elmer) with Ex/Em 615/665. To determine the potency (IC50) and extent of MED1 repulsion, TR-FRET ratios were normalized to the average ratio of DMSO control wells (0%) and to the average minimum ratio for positive control compound (GW9662 (2-chloro-5-nitrobenzanilide); defined as 100%) in CDD Vault and analyzed using the Levenberg-Marquardt algorithm.

The test system of assay [3] is ANGPTL4, a PPARG target gene, in HT1197 (RXRA S427F mutation) cells. In words: Bladder cancer pharmacodynamic assay (HT1197 cell assay, qPCR of PPARG target genes). The assay is classed as cell-based. The following applies: Homo sapiens; for inhibition at 0.1 µM: 100 nM compound, 24 hours, relative to DMSO control; for EC50: 24 hours treatment, qPCR. As for the experimental part: 5637 (PPARG amplified) and HT1197 (RXRA S427F mutation) cells were used for assessment of modulation of PPARG target genes using quantitative PCR. Cells were treated for 24 hours with PPARG inverse agonists prior to analysis of FABP4 (IDT, Cat: Hs.PT 58.20106818) and ANGPTL4 (IDT, Cat: Hs.PT 58.25480012) expression, with expression of the housekeeping gene TBP (IDT, Cat: Hs.PT 58v.39858774) used to normalize expression across samples. Quantitative PCR was performed using an ABI QuantStudio 7 Flex Reaction system. Data were analyzed and reported relative to DMSO control using the comparative Ct method (ΔΔCt).
A general note: Quantitative PCR measures a nucleic acid by following its amplification.

One may read the EC50 as the concentration giving half of the maximal effect. What is called inhibition is the relative decrease from the control value, in per cent. As for `CS(=O)(=O)c1ccc(C#N)cc1C(=O)Nc1ccc(C#N)c(Cl)c1` [Example 1, N-(3-chloro-4-cyanophenyl)-5-cyano-2-(methylsulfonyl)benzamide], the 50% effective concentration (EC50) in assay [1] was 0.1 to 1 µM; in assay [2], 0.1 to 1 µM; in assay [3], 0.0052 µM. In addition, in assay [3], the inhibition at 0.1 µM worked out at 86%.

Turning to `N#Cc1ccc(SC(F)(F)F)c(C(=O)Nc2cc(F)c(-c3ccc(C(F)F)nc3)c(F)c2)c1` [Example 2, 5-cyano-N-(4-(6-(difluoromethyl)pyridin-3-yl)-3,5-difluorophenyl)-2-((trifluorometh-yl)thio)benzamide], the EC50 in assay [1] and in assay [2] was 0.1 to 1 µM each time. For the same compound, 0.1 µM produced 83% inhibition in assay [3].

Regarding `Cc1ccc(-c2c(F)cc(NC(=O)c3cc(C#N)ccc3SC(F)(F)F)cc2F)cn1` [Example 3, 5-cyano-N-(3,5-difluoro-4-(6-methylpyridin-3-yl)phenyl)-2-((trifluorometh-yl)thio)benzamide], the EC50 was 0.01 to 0.1 µM in assay [1] and 0.1 to 1 µM in assay [2]. Also, in assay [3], 0.1 µM produced 57% inhibition.

Regarding `Cc1ccc(-c2c(F)cc(NC(=O)c3cc(C#N)ccc3S(C)(=O)=O)cc2F)cn1` [Example 4, 5-cyano-N-(3,5-difluoro-4-(6-methylpyridin-3-yl)phenyl)-2-(methylsulfonyl) benzamide], the concentration giving a half-maximal response (EC50) in assay [1] and in assay [2] was 0.1 to 1 µM each time. The same compound registered an inhibition at 0.1 µM in assay [3] of 74%.

In the case of `CS(=O)(=O)c1ccc(C#N)cc1C(=O)Nc1cc(F)cc(F)c1` [Example 5, 5-cyano-N-(3,5-difluorophenyl)-2-(methylsulfonyl) benzamide], the half-maximal effective concentration (EC50) in assay [1] was 0.1 to 1 µM; in assay [2], 1 to 10 µM. The same compound registered an inhibition at 0.1 µM in assay [3] of 40%.

As for `N#Cc1ccc(SC(F)(F)F)c(C(=O)Nc2cc(F)cc(F)c2)c1` [Example 6, 5-cyano-N-(3,5-difluorophenyl)-2-(trifluorometh-ylsulfanyl)ben-zamide], the EC50 in assay [1] and in assay [2] was 0.1 to 1 µM in each case. The same compound showed an inhibition at 0.1 µM in assay [3] of 54%.

For the compound `CS(=O)(=O)c1ccc(C#N)cc1C(=O)Nc1ccc(C#N)c(C(F)(F)F)c1` [Example 7, 5-cyano-N-(4-cyano-3-(trifluorometh-yl)phenyl)-2-(methylsulfonyl) benzamide], the EC50 in assay [1] and in assay [2] was 1 to 10 µM throughout. Also, in assay [3], 0.1 µM produced 77% inhibition.

`CS(=O)(=O)c1ccc(C#N)cc1C(=O)Nc1cc(Cl)cc(Cl)c1` [Example 8, 5-cyano-N-(3,5-dichlorophenyl)-2-(methylsulfonyl) benzamide]: the EC50 in assay [1] and in assay [2] was 0.1 to 1 µM throughout. The compound also gave an inhibition at 0.1 µM in assay [3] of 41%.

As to `CS(=O)(=O)c1ccc(C#N)cc1C(=O)Nc1ccnc(C(F)(F)F)c1` [Example 9, 5-cyano-2-(methylsulfonyl)-N-(2-(trifluorometh-yl)pyridin-4-yl)benzamide], the EC50 in assay [1] and in assay [2] was 1 to 10 µM throughout. Moreover, the inhibition at 0.1 µM in assay [3] stood at 64%.

Consider `CS(=O)(=O)c1ccc(C#N)cc1C(=O)Nc1ccc(C(F)(F)F)c(C#N)c1` [Example 10, 5-cyano-N-(3-cyano-4-(trifluorometh-yl)phenyl)-2-(methylsulfonyl) benzamide], for which the EC50 in assay [1] and in assay [2] was 0.1 to 1 µM throughout. In addition, in assay [3], at 0.1 µM the inhibition was 48%.

On to `CN1Cc2ccc(-c3c(F)cc(NC(=O)c4cc(C#N)ccc4S(C)(=O)=O)cc3F)cc2C1=O` [Example 11, 5-cyano-N-(3,5-difluoro-4-(2-methyl-3-oxoisoindolin-5-yl)phenyl)-2-(methylsulfonyl) benzamide], for which the half-maximal effective concentration (EC50) in assay [1] is 0.01 to 0.1 µM; in assay [2] it was 0.1 to 1 µM; in assay [3], 0.0013 µM. Moreover, at 0.1 µM the inhibition in assay [3] was 79%.

As to `CN1CCN(c2ccc(NC(=O)c3cc(C#N)ccc3S(C)(=O)=O)cn2)CC1` [Example 12, 5-cyano-N-(6-(4-methylpiperazin-1-yl)pyridin-3-yl)-2-(methylsulfonyl) benzamide], the half-maximal effective concentration (EC50) in assay [1] and in assay [2] was more than 10 µM each time. Further, 0.1 µM produced 25% inhibition in assay [3].

Regarding `CS(=O)(=O)c1ccc(C#N)cc1C(=O)Nc1cc(F)c(-c2ccc(C(F)F)nc2)c(F)c1` [Example 13, 5-cyano-N-(4-(6-(difluoromethyl)pyridin-3-yl)-3,5-difluorophenyl)-2-(methylsulfonyl) benzamide], the EC50 in assay [1] is 0.1 to 1 µM; in assay [2], 0.1 to 1 µM; in assay [3], 0.0029 µM. In assay [3], this compound gave an inhibition at 0.1 µM of 80%.

In the case of `CS(=O)(=O)c1ccc(C#N)cc1C(=O)Nc1ccc2cnccc2c1` [Example 14, 5-cyano-N-(isoquinolin-6-yl)-2-(methylsulfonyl) benzamide], the concentration giving a half-maximal response (EC50) in assay [1] and in assay [2] was 1 to 10 µM each time. The same compound registered an inhibition at 0.1 µM in assay [3] of 35%.

Consider `N#Cc1ccc(SC(F)(F)F)c(C(=O)Nc2cc(Cl)cc(Cl)c2)c1` [Example 15, 5-cyano-N-(3,5-dichlorophenyl)-2-((trifluorometh-yl)thio)benzamide], for which the EC50 in assay [1] and in assay [2] was 0.01 to 0.1 µM in each case. This compound also registered an inhibition at 0.1 µM in assay [3] of 46%.

Regarding `CS(=O)(=O)c1ccc(C#N)cc1C(=O)Nc1cc(F)cc(Oc2ccc(Cl)cc2)c1` [Example 16, N-(3-(4-chlorophenoxy)-5-fluorophenyl)-5-cyano-2-(methylsulfonyl) benzamide], the EC50 in assay [1] and in assay [2] was 0.01 to 0.1 µM throughout.

With `CS(=O)(=O)c1ccc(C#N)cc1C(=O)Nc1ccc(F)c(C#N)c1` [Example 17, 5-cyano-N-(3-cyano-4-fluorophenyl)-2-(methylsulfonyl) benzamide], the EC50 in assay [1] and in assay [2] was 1 to 10 µM in each case. For the same compound, the inhibition at 0.1 µM in assay [3] stood at 43%.

In the case of `CC(=O)N1CCN(c2ccc(NC(=O)c3cc(C#N)ccc3S(C)(=O)=O)cn2)CC1` [Example 18, N-(6-(4-acetylpiperazin-1-yl)pyridin-3-yl)-5-cyano-2-(methylsulfonyl) benzamide], the EC50 in assay [1] and in assay [2] was more than 10 µM each time. The compound also showed an inhibition at 0.1 µM in assay [3] of 13%.

As for `Cc1cc(NC(=O)c2cc(C#N)ccc2S(C)(=O)=O)cc(C)n1` [Example 19, 5-cyano-N-(2,6-dimethylpyridin-4-yl)-2-(methylsulfonyl) benzamide], the EC50 in assay [1] and in assay [2] was more than 10 µM in each case. The inhibition at 0.1 µM in assay [3] is 20%.

For `CS(=O)(=O)c1ccc(C#N)cc1C(=O)Nc1ccn2nccc2c1` [Example 20, 5-cyano-2-(methylsulfonyl)-N-(pyrazolo[1,5-a]pyridin-5-yl)benzamide], the EC50 in assay [1] and in assay [2] was more than 10 µM in each case. In addition, in assay [3], testing at 0.1 µM gave an inhibition of 0%.

As for `CS(=O)(=O)c1ccc(C#N)cc1C(=O)Nc1ccc(C#N)c(F)c1` [Example 21, 5-cyano-N-(4-cyano-3-fluorophenyl)-2-(methylsulfonyl) benzamide], the EC50 in assay [1] and in assay [2] was 1 to 10 µM throughout. Besides, the inhibition at 0.1 µM in assay [3] was 79%.
